The source of these data is patent US20240217953A1, “BICYCLIC SUBSTITUTED AROMATIC CARBOXYLIC ACID COMPOUNDS” (CHIA TAI TIANQING PHARMACEUTICAL GROUP CO., LTD., priority 2021, published 2024).

For data set [1], the target named is complement alternative pathway in human serum. The data set can be described thus: Inhibition of Wieslab complement alternative pathway activation (enzyme activity determination). The settings on record: human serum diluted 1:23, Wieslab alternative pathway kit, absorbance at 405 nm; read-out: IC50 for alternative pathway membrane attack complex (AP MAC). It is filed as biochemical. On the procedure: To determine the inhibitory activity of the test compounds against the complement alternative pathway in human serum by using a Wieslab complement system alternative pathway kit.
The serum was diluted with a diluent (1:23). Drugs were added to the diluted serum in 8 concentration gradients, with the highest concentration of 10 mM or 50 mM and 5-fold gradient dilution. The resulting mixture was incubated at room temperature for 15 min. The compound and the serum mixture were added to a 96-well plate (100 μL/well) provided in the kit and activated at 37° C. for 1 h. The mixture was washed three times with a washing buffer. The detection antibody (100 μL) provided in the kit was added and the mixture was incubated at room temperature for 30 min. The mixture was washed three times with a washing buffer. A substrate (100 μL) was added and the mixture was incubated at room temperature for 30 min. The absorbance at 405 nm was measured using a microplate reader.

Data set [2] addresses human complement Factor B protein (Homo sapiens, UniProt P00751). The data set can be described thus: Human complement Factor B protein binding determination (TR-FRET method). The conditions noted are these: biotinylated Factor B 25 nM, Cy5-labeled probe 75 nM, PBS pH 7.4, 2 h. On the procedure: To determine the binding activity of the test compounds to human complement Factor B protein by using TR-FRET method.
Drugs were added to phosphate buffered saline PBS (pH 7.4) starting at 10 μM with 4-fold dilution and 10 concentrations in total. […] Time-resolved fluorescence resonance energy transfer (TR-FRET) data was measured using 330 nm as the excitation wavelength and 665 nm as the emission wavelength.
A general note: In TR-FRET formats the signal depends on donor and acceptor labels being close together.

A short description of data set [3]: Pharmacokinetic study in rats. It counts as in vivo. The settings on record: rat; male SD rats, oral intragastric administration, 10 mg/kg, plasma. On the procedure: To determine the drug concentration in the plasma of the test animals (male SD rats) at different time points after oral intragastric administration of the compounds disclosed herein by an LC/MS/MS method. To investigate the pharmacokinetic performance of the compounds disclosed herein in rats and to evaluate the pharmacokinetic characteristics.
Healthy male rats weighing 200-300 g, 2 rats in each group.
The compound disclosed herein was formulated into a 1 mg/mL clear solution with an aqueous solution of 0.5% MC (4000 cP)/0.5% Tween 80. Rats, after fasting overnight, were subjected to oral intragastric administration at a dose of 10 mg/kg. Blood was collected before administration and 0.25, 0.5, 1, 2, 4, 7, and 24 h after the administration, placed in heparin anticoagulation tubes, and centrifuged at 7000 rpm (5204 g) at 4° C. The plasma was separated and stored at −80° C. Four hours after administration, feeding was resumed. LC/MS/MS method was used to determine the content of the test compound in the plasma of the rats after oral administration. The plasma samples were analyzed after pretreatment to precipitate proteins.

Sequence of human complement Factor B protein (P00751 26-764): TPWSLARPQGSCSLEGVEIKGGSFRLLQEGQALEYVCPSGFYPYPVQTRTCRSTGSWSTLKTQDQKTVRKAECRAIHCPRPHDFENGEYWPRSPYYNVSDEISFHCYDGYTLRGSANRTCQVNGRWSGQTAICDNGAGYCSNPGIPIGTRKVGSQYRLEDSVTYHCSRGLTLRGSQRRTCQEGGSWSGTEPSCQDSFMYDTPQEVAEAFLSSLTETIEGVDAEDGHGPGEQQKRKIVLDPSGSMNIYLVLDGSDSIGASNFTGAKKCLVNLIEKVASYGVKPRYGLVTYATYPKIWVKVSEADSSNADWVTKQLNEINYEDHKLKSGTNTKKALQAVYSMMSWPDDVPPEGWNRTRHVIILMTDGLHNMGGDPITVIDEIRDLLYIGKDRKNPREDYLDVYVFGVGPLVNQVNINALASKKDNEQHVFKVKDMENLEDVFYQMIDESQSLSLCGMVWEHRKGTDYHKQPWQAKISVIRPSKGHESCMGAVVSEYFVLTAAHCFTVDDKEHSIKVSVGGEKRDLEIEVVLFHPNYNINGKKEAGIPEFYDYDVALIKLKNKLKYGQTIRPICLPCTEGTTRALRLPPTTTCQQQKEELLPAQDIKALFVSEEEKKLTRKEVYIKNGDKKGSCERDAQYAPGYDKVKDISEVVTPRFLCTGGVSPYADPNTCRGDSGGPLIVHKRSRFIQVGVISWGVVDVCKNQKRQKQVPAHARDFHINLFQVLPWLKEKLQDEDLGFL

For `COc1cc(C)c2[nH]ccc2c1CN1C2CCCC1(c1ccc(C(=O)O)cc1)CC2` (single isomer, unassigned) [Compound 7A], the IC50 in data set [1] and in data set [2] was less than 100 nM throughout.
On to `CCOC1CC2CCC(c3ccc(C(=O)O)cn3)(C1)N2Cc1c(OC)cc(C)c2[nH]ccc12` (single isomer, unassigned) [Compound 9A], for which the IC50 in data set [1] and in data set [2] was less than 100 nM in each case.
For the compound `COc1cc(C)c2[nH]ccc2c1CN1CCC2CC1(c1ccc(C(=O)O)cc1)CCN2CC(F)(F)F` (stereo not drawn) [Compound 2], the IC50 (as a rule, the concentration that inhibits the measured activity by half) in data set [1] was less than 100 nM. In data set [3], the AUC(0-t) – broadly, the area under the concentration-time curve up to a stated or last time point – turned out to be 14.7 µM·h; the Cmax (as a rule, the highest concentration seen after dosing) is 3.25 µM; the Tmax (usually the time from dosing to the highest level) was 0.5 h; the half-life (in general, the time needed for the level to fall by half in the phase considered) is 4.65 h.
With `COc1cc(C)c2[nH]ccc2c1CN1CCC2CC1(c1ccc(C(=O)O)cc1)CCN2CC(F)F` (stereo not drawn) [Compound 3], in data set [1], the IC50 was less than 100 nM.
`CCOC1CC2CCC(c3ccc(C(=O)O)nc3)(C1)N2Cc1c(OC)cc(C)c2[nH]ccc12` (stereo not drawn) [Compound 11] displayed an IC50 in data set [2] of less than 100 nM.
Same read-out and setting: the same measure for `COc1cc(C)c2[nH]ccc2c1CN1C2CCC1(c1ccc(C(=O)O)cc1)CC(C)C2` (stereo not drawn) [Compound 12]: less than 100 nM.
